Results as given in US10888547B2, “Amorphous and a crystalline form of genz 112638 hemitartrate as inhibitor of glucosylceramide synthase” (Genzyme Corporation, priority 2009, dated 2021).
Where two headings read alike, the source gives them in different places.

Assays:
[1] = Approximate solubility in organic solvents from solvent addition; format: physicochemical; settings: organic solvent or mixture, thermodynamic from solid, room temperature (20-25° C.)
Experimental: A weighed sample (usually 20 mg) was treated with aliquots of the test solvent. Aliquots were typically 100-200 μL. Between solvent additions, the mixture was shaken or sonicated. When the solids dissolved, as judged by visual inspection, the solution was allowed to evaporate under ambient conditions in an open vial covered with aluminum foil perforated with pinholes. Solubilities were estimated from these experiments based on the total solvent added to obtain a clear solution.

GM1 in K562 cells = experiment: Flow cytometry of cell surface GM1 in intact cells; format: cell-based; settings: for IC50: Homo sapiens
Excerpt: Since […] the first and rate-limiting step in the biosynthesis of glycosphingolipids, a flow cytometry assay that measured cell surface levels of GM 1 and GM3 was used to indirectly assess the activity of the inhibitor in intact cells.

[2] = Drug interaction study with ketoconazole (CYP3A4 and p-glycoprotein inhibitor) in healthy subjects; format: in vivo, human; settings: 100 mg twice daily with ketoconazole 400 mg once daily
α-glucosidase I and II = experiment: α-Glucosidase I and II specificity assay; format: biochemical
D409V/null mice = experiment: Oral gavage efficacy study in Gaucher D409V/null mice; format: in vivo, mouse
[3] = test system: Gaucher mice (D409V/null); experiment: Separate and sequential enzyme and substrate reduction therapy in Gaucher mice; format: in vivo, mouse
Excerpt: Procedures involving animals were reviewed and approved by the Institutional Animal Care and Use Committee (IACUC) at Genzyme Corporation following the guidelines issued by the Association for Assessment and Accreditation of Laboratory Animal Care (AAALAC). […] The study had 6 groups of mice with group A being sacrificed after 2 weeks to provide baseline levels of tissue glucosylceramide. Groups B, C, and D all received recombinant human glucocerebrosidase (Genzyme Corp., Cambridge, Mass.) (10 mg/kg) intravenously via a tail-vein (100 μL) every 2 days for a total of 8 injections. Group B was sacrificed at the end of this regimen (at the same time as group A) to provide enzyme-reduced levels of tissue glucosylceramide. Groups D and E were both fed Formula (I) Hemitartrate (Genzyme Corp., Cambridge, Mass.) as a component of the pellet food diet. The drug was formulated at 0.075% (w/w) in standard 5053 mouse chow (TestDiet, Richmond, Ind.) and provided ad libitum. […] Group F received no treatment and was sacrificed along with groups C, D and E 12 weeks after the start of the study. Food consumption and mouse weights were monitored three times per week to determine drug intake and the potential impact of the drug on overall health. Animals were killed by carbon dioxide inhalation and their tissues harvested immediately. Half of each tissue was snap frozen on dry ice and stored at −80° C. until ready for further processing. The other half was processed for histological analysis.
Glucosylceramide levels were quantified by mass spectrometry as described previously (see K. McEachern, et al., J. Gene. Med. 8 (2006) 719-729; T. Doering, J. Biol. Chem. 274 (1999) 11038-11045, the entire teachings of both are incorporated herein by reference). A known mass of tissue was homogenized in 2:1 (v/v) chloroform:methanol and incubated at 37° C. for 15 min. Samples were centrifuged and the supernatants were extracted with 0.2 volumes of water overnight at 4° C. The samples were centrifuged, the aqueous phase was discarded, and the organic phase was dried down to a film under nitrogen. For electrospray ionization mass spectrometry (ESI/MS) analysis, tissue samples were reconstituted to the equivalent of […] original tissue weight in 1 ml chloroform:methanol (2:1, v/v) and vortexed for 5 min. Aliquots (40 μL) of each sample were delivered to Waters total recovery vials and 50 μL of a 10 μg/mL d3-C16-GL-1 internal standard (Matreya, Inc., Pleasant Gap, Pa.) was added. Samples were dried under nitrogen and reconstituted with 200 μL of 1:4 (v/v) DMSO:methanol. ESI/MS analysis of glucosylceramides of different carbon chain lengths was performed on a Waters alliance HPLC (Separation Module 2695) coupled to a Micromass Quattro Micro system equipped with an electrospray ion source. Lipid extract samples (20 μL) were injected onto a C8 column ([…] i.d; Phenomenex, Torrance, Calif.) at 45° C. and eluted with a gradient of 50 to 100% acetonitrile (2 mM ammonium acetate, 0.1% formic acid) at 0.5 mL/min. The first 0.5 min. was held at 50% organic and then quickly switched to 100% for the final 3.5 min. The source temperature was held constant at 150° C. and nitrogen was used as the desolvation gas at a flow rate of 670 L/h. The capillary voltage was maintained at 3.80 KV with a cone voltage of 23 V, while the dwell time for each ion species was 100 ms. Spectra were acquired by the MRM mode to monitor eight dominant isoforms (C16:0, C18:0, C20:0, C22:1, C22:0, C22:1-OH, C24:1, and C24:0). Quantitation of glucosylceramide was based on the sum of these eight isoforms relative to the internal standard, with a calibration curve ranging from 0.1 to 10 μg/mL.
For histological analysis, tissues were fixed in zinc formalin (Electron Microscopy Sciences, Hatfield, Pa.) at room temperature for 24 h, then stored in PBS at 4° C. until ready for further processing. […]

[4] = Hygroscopicity of salts and free base; format: physicochemical
[5] = mouse, in vivo, po, 150 mg/kg/day
[6] = group D: 2 weeks enzyme, then 150 mg/kg/day in food for 10 weeks
[7] = group E: 150 mg/kg/day in food alone for 12 weeks

## CCCCCCCC(=O)N[C@H](CN1CCCC1)[C@H](O)c1ccc2c(c1)OCCO2 [Formula (I) Hemitartrate]
[1]; Acetone
  solubility: < 5000 µg/mL
[1]; Acetonitrile
  solubility: < 5000 µg/mL
[1]; Dichloromethane
  solubility: 100000 µg/mL
[1]; Ethanol
  solubility: 29000 µg/mL
[1]; Ethyl Acetate
  solubility: < 5000 µg/mL
[1]; Isopropyl alcohol
  solubility: < 5000 µg/mL
[1]; Methanol
  solubility: > 200000 µg/mL
[1]; Methyl t-butyl ether (TBME)
  solubility: < 5000 µg/mL
[1]; Tetrahydrofuran (THF)
  solubility: < 5000 µg/mL
[1]; Toluene
  solubility: < 5000 µg/mL
[1]; p-Dioxane
  solubility: < 5000 µg/mL
GM1 in K562 cells; K562 cells, 72 h incubation, printed range 14-34 nM, read-out: mean IC50 for inhibiting the cell surface presentation of GM1
  IC50: 0.024 µM
GM1 in K562 cells; Table 8, GM1 in K562 cells, read-out: Substrate inhibition potency (in vitro IC50)
  IC50: ~0.024 µM
GM1 in K562 cells; K562 cells, up to the highest dose (0.6-1000 nM), 72 h
  cellular toxicity: No overt cellular toxicity
[2]
  increase in exposure of the free base in plasma at steady state with ketoconazole: 4 fold
α-glucosidase I and II; concentrations up to 2500 μM
  inhibition of α-glucosidase I and II: No detectable inhibition
α-glucosidase I and II; read-out: Enzyme specificities, IC50: α-Glucosidase I and II
  IC50: > 2500 µM
D409V/null mice; effective dose of 150 mg/kg/day
  gastro-intestinal issues: no observable gastro-intestinal issues
D409V/null mice; mouse, in vivo
  glucosylceramide levels versus age-matched vehicle-treated controls: dose-dependent reduction
D409V/null mice; [5]
  body weight versus untreated mice: no significant deviation
  effects on well-being or feeding habits: no notable effects
  frequency of Gaucher cells in the liver versus untreated mice: significantly lower
  glucosylceramide levels in liver, % lower than in vehicle-treated mice: 60%
  glucosylceramide levels in liver, lung and spleen versus start of the study: had not increased
  glucosylceramide levels in lung, % lower than in vehicle-treated mice: 50%
  glucosylceramide levels in spleen, % lower than in vehicle-treated mice: 40%
  glucosylceramide levels in the liver, % of those in the controls: 60%
  glucosylceramide levels in the lung, % of those in the controls: 40%
  glucosylceramide levels in the spleen, % of those in the controls: 75%
[3]; 2 weeks enzyme, then substrate reduction therapy for 10 weeks
  liver histopathology, CD68-positive Gaucher cells: increase in Gaucher cells was negated
[3]; chow containing 150 mg/kg/day
  weight gain versus regular chow: no discernible differences in weight gain
[3]; drug alone for 12 weeks
  liver histopathology, CD68-positive Gaucher cells: reduced accumulation of the substrate
[3]; group D: 2 weeks enzyme, then 150 mg/kg/day in chow for 10 weeks
  lung GL1 levels versus untreated controls (F): significantly lower
[3]; [6]
  liver GL1 levels versus untreated controls (F): significantly lower
  splenic GL1 levels versus untreated control (F): significantly lower
[3]; [7]
  liver GL-1 levels versus untreated, age-matched controls (F): the difference was not significant
  pulmonary GL1 levels versus untreated controls (F): effective in lowering pulmonary GL1 levels
  splenic GL1 levels versus untreated controls (F): the difference was not significant
[4]; 40° C./75% RH
  Hygroscopicity (40° C./75% RH): None
[4]; salt screen, Example 1, listed as hemitartrate (1 salt: 2 Formula I)
  hygroscopicity of the solid salt: non-hygroscopic
